Laboratory results as given in patent US20070287180A1, “Linear Dna Fragment For Markerless Deletion, Novel Strain Having Inhibited Formation Of Biofilm And Preparation Method Thereof” (priority 2004, published 2007).

Test system: E. coli DEB31
Assay: Antibiotics susceptibility of biofilm-grown cells, plate counting (modified Whiteley method)
Format: cell-based, Escherichia coli
Details: for antibiotic concentration at which the number of living E. coli DEB31 equals that of wild-type MG1655 at the standard concentration: 24 h biofilm, then 10 h antibiotic at 30° C., MG1655 standard concentration: ampicillin 50, streptomycin 30, rifampicin 150 μg/ml
Protocol: The antibiotics susceptibility of the variants was measured using the modified technique developed by Whiteley (Whiteley M., Nature, 413, 860, 2001). In other words, 96-well polystyrene plates containing 0.2 ml of LB culture were inoculated with the variants to be incubated for 24 hours to allow biofilm formation. Each well was added with various concentrations of antibiotics ranging from 0.25 μg to 64 μg and were incubated for 10 hours. The number of living cells was measured by plate counting method.
After incubating the variants in 96-well plates containing 200 μl of LB medium for 24 hours, the serial diluted antibiotics was added to each well at the following concentration ranges: ampicillin, from 0 to 128 μg/ml; streptomycin, from 0 to 64 μg/ml; and rifampicin, from 0 to 256 μg/ml. The cells were incubated for additional 10 hours at 30° C. after antibiotics addition. Then, the number of the living E. coli variants was counted using the standard plate counting method.

| SMILES | antibiotic concentration at which the number of living E. coli DEB31 equals that of wild-type MG1655 at the standard concentration | increase of antibiotics susceptibility versus wild-type MG1655 (DEB31 / biofilm-deficient variants vs MG1655) |
| --- | --- | --- |
| [H]/N=C(/N)N[C@H]1[C@H](O)[C@@H](O)[C@H](O[C@@H]2O[C@@H](C)[C@](O)(C=O)[C@H]2O[C@@H]2O[C@@H](CO)[C@H](O)[C@@H](O)[C@@H]2NC)[C@@H](N/C(N)=N\[H])[C@@H]1O [streptomycin] | 8 µg/mL |  |
| CO[C@H]1/C=C/O[C@@]2(C)Oc3c(C)c(O)c4c(O)c(c(/C=N/N5CCN(C)CC5)c(O)c4c3C2=O)NC(=O)/C(C)=C\C=C\[C@H](C)[C@H](O)[C@@H](C)[C@@H](O)[C@@H](C)[C@H](OC(C)=O)[C@@H]1C [rifampicin] | 32 µg/mL | about 5 fold |
| CC1(C)S[C@@H]2[C@H](NC(=O)[C@H](N)c3ccccc3)C(=O)N2[C@H]1C(=O)O [ampicillin] | 2 µg/mL |  |
